Laboratory results taken from patent publication US20140221397A1, “FIBROSIS INHIBITOR” (Nippon Shinyaku Co., Ltd., priority 2008, published 2014).

Columns and labels:
[1] = tested on: interstitial pneumonia model mice induced by bleomycin; conditions: Non-Patent Document 1; cited from earlier work
Human Lung fibroblasts [2] = assay: Proliferation of human lung fibroblasts stimulated by EGF (Test Example 1); format: cell-based; conditions: EGF stimulation, 10 μL of a 100 μM solution per well, 48 hours, FIG. 1
Method: Human Lung fibroblasts (manufactured by Lonza Walkersville; hereinafter, the same product will be used) were cultured in growth medium, which consisted of basal medium for human lung fibroblasts (manufactured by Lonza Walkersville; hereinafter, the same product will be used and referred to as “basal medium”) with FGM-2 additional factor set (manufactured by Lonza Walkersville; hereinafter, the same product will be used) under the condition of 37° C. and 5% CO2. The human lung fibroblasts were seeded in 96-well plate at 1×10^3 cell/well and incubated overnight in growth medium.
The fibroblasts were washed once with 100 μL of phosphate-buffered saline (manufactured by Nissui Seiyaku; hereinafter, the same product will be used) and 100 μL of basal medium was added thereto followed by incubation for 24 hours. They were further washed with 100 μL of phosphate-buffered saline once and then basal medium was added in an amount of 80 μL/well. Ten μL of a 100 μM solution of the compound A or the compound B was added to each well and incubated for 2 hours. […]
After incubating for 48 hours, absorbance at 490 nm was measured using Cell Titer 96, AQueous Assay (manufactured by Promega) for the analysis of cell proliferation activity. For the measurement of the absorbance, a microplate reader (Benchmark, manufactured by Bio-Rad; hereinafter, the same one will be used) was used.

Human Lung fibroblasts [3] = assay: Proliferation of human lung fibroblasts stimulated by TGF-α (Test Example 2); format: cell-based; conditions: TGF-α stimulation, 10 μL of a 1 μM solution per well, 48 hours, FIG. 2
Method: Human lung fibroblasts were incubated in growth medium under the condition of 37° C. and 5% CO2. The human lung fibroblasts were seeded in 96-well plate at 3×10^3 cell/well and incubated overnight in growth medium.
The fibroblasts were washed once with 100 μL of phosphate-buffered saline. Then basal medium was added thereto and incubation was conducted for 24 hours. They were further washed with 100 μL of phosphate-buffered saline once and then basal medium was added in an amount of 80 μL/well. Ten μL of a 1 μM solution of the compound A was added to each well and incubated for 2 hours. The solution used therefor was prepared in such a manner that the compound A was previously dissolved in DMSO and the resulting 1 mM solution was diluted 100-fold with basal medium. For the non-stimulated control group and the control group, DMSO which was diluted 100-fold with the basal medium was used.
Then a 100 ng/mL solution of transforming growth factor-α (TGF-α) (manufactured by Chemicon) was added in an amount of 10 μL to each well and incubated for 48 hours. For a non-stimulated control group, the basal medium was used.
After incubating for 48 hours, absorbance at 490 nm was measured, in the same way as in Test Example 1, using a reagent for the analysis of cell proliferation activity. For the measurement of the absorbance, a microplate reader was used.

Human Lung fibroblasts [4] = assay: Collagen production (PIP) in human lung fibroblasts stimulated by TGF β1 (Test Example 3); format: cell-based; conditions: TGF β1 stimulation, 10 μL of 0.1, 1, 10 or 100 μM solution per well, 48 hours, FIG. 3
Method: Human lung fibroblasts were seeded in 96-well plate at 5×10^3 cells/well and incubated in the growth medium in the same way as in Test Example 1 overnight. The fibroblasts were washed once with 100 μL of basal medium and 100 μL of basal medium was added thereto followed by incubating for 24 hours. They were further washed once with 100 μL of basal medium and then 80 μL/well of basal medium was added. A 0.1, 1, 10 or 100 μM solution of the compound A was added in an amount of 10 μL to each well. […] After incubating for 48 hours, the medium was recovered for measuring the concentration of the type I pro-collagen C terminal peptide (PIP) in the medium, and after an addition of 100 μL of the basal medium, the cell proliferation activity was measured using 3-(4,5-dimethyl-2-thiazolyl)-2,5-diphenyl-2H-tetrazolium bromide (MTT) (manufactured by Nacalai Tesque). Measurement of the cell proliferation activity was conducted in such a manner that 10 μL of a 5 mg/mL MTT stock solution was added to each well, and after incubation for 4 hours, 100 μL of a 0.04M isopropanol solution of hydrochloric acid was added to each well, followed by the absorbance measurement at 595 nm (reference wavelength: 655 nm) using a microplate reader. […]

[5] = tested on: type I collagen al chain (COL 1α1) mRNA; assay: COL 1α1 mRNA expression in human lung fibroblasts stimulated by TGF β1, real-time quantitative PCR (Test Example 4); format: cell-based; conditions: TGF β1 stimulation, 24 hours, corrected for GAPDH, FIG. 4
Method: (§1) Human lung fibroblasts were seeded in 24-well plate at 1×10^5 cells/well and incubated in growth medium in the same way as in Test Example 1 overnight. The fibroblasts were washed once with 500 μL of basal medium, and added with 500 μL of basal medium followed by incubation for 24 hours. They were further washed once with 500 μL of basal medium and then 400 μL/well of basal medium was added. A 1, 10 or […] of the compound A prepared by the same manner as in Test Example 3 was added in an amount of 50 μL to each well. For the non-stimulated control group and the control group, DMSO which was diluted 100-fold with basal medium was added in an amount of 50 μL. […] Using the cDNA prepared as above as a template, expressed amount of mRNA for type I collagen al chain (COL 1α1), type I collagen α2 chain (COL 1α2), α smooth muscle actin (ACTA), TGF β1 and glyceraldehydes 3-phosphate dehydrogenase (GAPDH) were measured by means of a real-time quantitative PCR method. The real-time quantitative PCR was conducted using Platinum SYBR Green qPCR Super-Mix-UDG with ROX (manufactured by Invitrogen) and a primer being specific to each gene in accordance with the manual attached to the Platinum SYBR Green qPCR Super-Mix-UDG with ROX using ABI PRISM 7000 (Applied Biosystems). […]

[6] = tested on: type I collagen α2 chain (COL 1α2) mRNA; assay: COL 1α2 mRNA expression in human lung fibroblasts stimulated by TGF β1, real-time quantitative PCR (Test Example 4); format: cell-based; conditions: TGF β1 stimulation, 24 hours, corrected for GAPDH, FIG. 5
Method: as §1

[7] = tested on: α smooth muscle actin (ACTA) mRNA; assay: ACTA mRNA expression in human lung fibroblasts stimulated by TGF β1, real-time quantitative PCR (Test Example 4); format: cell-based; conditions: TGF β1 stimulation, 24 hours, corrected for GAPDH, FIG. 6
Method: as §1

TGF β1 mRNA = TGF β1 mRNA expression in human lung fibroblasts stimulated by TGF β1, real-time quantitative PCR (Test Example 4); format: cell-based; conditions: TGF β1 stimulation, 24 hours, corrected for GAPDH, FIG. 7
Method: as §1

[8] = tested on: Rat renal interstitial cells (NRF 49F cells); assay: Proliferation of rat renal interstitial cells stimulated by PDGF BB, MTT (Test Example 5); format: cell-based; conditions: PDGF BB stimulation, 10 μL of a 100 μM solution per well, 48 hours, FIG. 8
Method: Rat renal interstitial cells (NRF 49F cells) were seeded in 96-well plate at 1×10^4 cells/well and incubated in an Minimum Essential Medium (MEM medium; manufactured by Nippon Seiyaku; hereinafter, the same product will be used) containing 10% of bovine fetal serum (manufactured by JRH Bioscience; hereinafter, the same product will be used) under the condition of 37° C. and 5% CO2 overnight. The cells were washed once with an MEM medium containing no bovine fetal serum (hereinafter, referred to as “serum-free MEM medium”), and 100 μL of the serum-free MEM medium was added thereto followed by incubation for 24 hours. After washing with serum-free MEM medium once, serum-free MEM medium was added in an amount of 80 μL/well. A 100 μM solution of the compound A prepared by the same method as in Test Example 1 was added in an amount of 10 μL to each well. For the non-stimulated control group and the control group, DMSO which was diluted 100-fold with serum-free MEM medium was added in an amount of 10 μL. […] After incubating for 48 hours, cell proliferation activity (absorbance) was measured by an MTT method in the same way as in Test Example 3. The evaluation of this test was carried out using the value (cell proliferation level) expressed as a relative value where a mean value of absorption of the non-stimulating control group was defined as 1.

Human skin fibroblasts = assay: Collagen production (PIP) in human skin fibroblasts stimulated by TGF β1 (Test Example 6); format: cell-based; conditions: TGF β1 stimulation, 10 μL of 0.1, 1, 10 or 100 μM solution per well, 48 hours, FIG. 9
Method: Human skin fibroblasts (manufactured by Kurabo; hereinafter, the same product will be used) were seeded in 96-well plate at 5×10^3 cells/well and incubated in a Dulbecco's modified Eagle's medium (DMEM medium; manufactured by Nippon Seiyaku; hereinafter, the same product will be used) containing 10% of bovine fetal serum under the condition of 37° C. and 5% CO2 overnight. The human skin fibroblasts were washed once with an DMEM medium containing no bovine fetal serum (hereinafter, referred to as “serum-free DMEM medium”), and 100 μL of serum-free DMEM medium was added thereto followed by incubation for 24 hours. After washing with serum-free DMEM medium once more, serum-free DMEM medium was added in an amount of 80 μL/well. Ten μL of the 0.1, 1, 10 or 100 μM solution of the compound A prepared by the same method as in Test Example 3 was added to each well. […] After incubating for 48 hours, cell proliferation activity (absorbance) was measured by the MTT method, and PIP concentration in the medium was measured in the same way as in Test Example 3. The evaluation of this test was carried out using the value (index for production of collagen) calculated as a relative value where a mean value in the non-stimulated control group was defined as 1 after correcting the measured value of PIP concentration using the cell proliferation activity value (absorbance).

SMILES | effect for interstitial pneumonia [1] | cell proliferation activity (absorbance at 490 nm) as compared with the control group (Human Lung fibroblasts [2]) | cell proliferation activity (absorbance at 490 nm) as compared with the control group (Human Lung fibroblasts [3]) | collagen production (index for collagen production, PIP corrected for cell proliferation activity) as compared with the control group (Human Lung fibroblasts [4]) | COL 1α1 mRNA expression level as compared with the control group [5] | COL 1α2 mRNA expression level as compared with the control group [6] | ACTA mRNA expression level as compared with the control group [7] | TGF β1 mRNA expression level as compared with the control group (TGF β1 mRNA) | cell proliferation level as compared with the control group [8] | production of collagen (index for production of collagen, PIP corrected for cell proliferation activity) as compared with the control group (Human skin fibroblasts)
O=C(O)COc1cccc2c1CCC=C2CCO/N=C(\c1ccccc1)c1cccnc1 [ONO-1301] | inhibitive effect | – | – | – | – | – | – | – | – | –
CC(C)N(CCCCOCC(=O)O)c1cnc(-c2ccccc2)c(-c2ccccc2)n1 [compound A, 2-{4-[N-(5,6-diphenyl-pyrazin-2-yl)-N-isopropylamino]butyloxy}acetic acid] | – | significantly decreased | significantly decreased | significantly decreased | decreased | decreased | decreased | decreased | significantly decreased | significantly decreased
CC(C)N(CCCCOCC(=O)NS(C)(=O)=O)c1cnc(-c2ccccc2)c(-c2ccccc2)n1 [compound B, 2-{4-[N-(5,6-diphenylpyrazin-2-yl)-N-isopropylamino]butyl-oxy}-N-(methylsulfonyl)acetamide] | – | significantly decreased | inhibitive effects | – | – | – | – | – | – | –
